Converted amounts (≈) assume the structure as drawn. “And” between values parts separate entries of the source, which are not always exact repeats. Equal values may be shown once. Read-outs that look alike come from different tables or passages of the source. Non-standard residues stand in square brackets, D forms with d. Residues, ends and D or L forms follow the SMILES beside them.
How the values were obtained:
[1] = system: MSSA; assay: Resistance profile of MSSA strains; type: cell-based, Staphylococcus aureus; parameters: key: R denotes resistant; S denotes sensitive
[2] = system: MRSA; assay: Resistance profile of MRSA strains; type: cell-based, Staphylococcus aureus; parameters: key: R denotes resistant; S denotes sensitive
[3] = system: A. baumannii strains resistant to Polymyxin B and Colistin; type: cell-based; settings: for MICGM: geometric mean, 7 A. baumannii strains resistant to polymyxin B and colistin
From the text: Gram-Negative Bacterial Strains used in this Study: All the A. baumannii strains used in this study were 1) obtained from the collection of Dr. Anthony A. Campagnari at the University of Buffalo and originally isolated from different patients and organs/tissues (strain 649, blood; strain 689, groin; strain 759, gluteus; strain 884, axilla; strain 985, pleural fluid); 2) were purchased from the American Type Culture Collection (ATCC, Manassas, Va., USA) (strain ATCC 17978, fatal meningitis; and strain ATCC 19606, urine); 3) obtained from MERCK (M89941, M89949, M89951, M89952, M89953, M89955 and M89963). These seven A. baumannii strains were resistant to polymyxin B and polymyxin E (Colistin).
Measurement of Antimicrobial Activity (MIC): The minimal inhibitory concentration (MIC) is defined as the lowest peptide concentration that inhibited bacterial growth. MICs were measured by a standard microtiter dilution method in Mueller Hinton (MH) medium. Briefly, cells were grown overnight at 37° C. in MH broth and were diluted in the same medium. […] The plates were incubated at 37° C. for 24 h, and the MICs were determined.

[4] = Hemolytic activity; type: cell-based, human; settings: 1% human erythrocytes (red blood cells), pH 7.4
Experimental: Hemoglobin release was determined spectrophotometrically at 570 nm. […] […] […] With the peptides used in this study the inventors used the HC30/MIC ratio value to calculate the therapeutic index.

[5] = 50% hemolysis of human red blood cells after 18 hours at 37° C., read-out: HC50

Compound	Antibiotic Susceptibility ([1]; MSSA strain BL7429 (Blood))	Antibiotic Susceptibility ([1]; MSSA strain M21913 (Finger))	Antibiotic Susceptibility ([1]; MSSA strain M22075 (Axilla))	Antibiotic Susceptibility ([1]; MSSA strain M22097 (Neck))	Antibiotic Susceptibility ([1]; MSSA strain M22274 (Spine))	Antibiotic Susceptibility ([1]; MSSA strain M22300 (Finger))	Antibiotic Susceptibility ([1]; MSSA strain M22312 (Finger))	Antibiotic Susceptibility ([1]; MSSA strain M22315)	Antibiotic Susceptibility ([2]; MRSA strain M21742 (Nose))	Antibiotic Susceptibility ([2]; MRSA strain M21756 (Nose))	Antibiotic Susceptibility ([2]; MRSA strain M22111 (Ear))	Antibiotic Susceptibility ([2]; MRSA strain M22130)	Antibiotic Susceptibility ([2]; MRSA strain M22224 (Leg))	Antibiotic Susceptibility ([2]; MRSA strain M22354)	Antibiotic Susceptibility ([2]; MRSA strain M22360 (Labia))	Antibiotic Susceptibility ([2]; MRSA strain M22424 (Arm))	HC50 at 18 h [4, 5]	other results
CCC[C@@H]1C[C@@H](C(=O)N[C@@H]([C@H]2O[C@H](SC)[C@H](O)[C@@H](O)[C@H]2O)[C@H](C)Cl)N(C)C1 [Clindamycin]	S	S	S	S	S	S	S	S	S	S	R	S	S	S	S	S^c		Antibiotic Susceptibility ([1]; MSSA strain M22287 (Hip)): S
CC[C@H]1OC(=O)[C@H](C)[C@@H](O[C@H]2C[C@@](C)(OC)[C@@H](O)[C@H](C)O2)[C@H](C)[C@@H](O[C@@H]2O[C@H](C)C[C@H](N(C)C)[C@H]2O)[C@](C)(O)C[C@@H](C)C(=O)[C@H](C)[C@@H](O)[C@]1(C)O [Erythromycin]	S	S	S	S	S	S	S	S	R	S	R	R	R	R	R	R		
Cc1onc(-c2ccccc2)c1C(=O)N[C@@H]1C(=O)N2[C@@H]1SC(C)(C)[C@@H]2C(=O)O [Oxacillin]	S	S	S	S	S	S	S	S	R	R	R	R	R	R	R	R^c		Antibiotic Susceptibility ([1]; MSSA strain M22287 (Hip)): S
CC(=O)N[C@H](CCCCN)C(=O)N[C@H](CC(C)C)C(=O)N[C@H](CCCCN)C(=O)N[C@H](CO)C(=O)N[C@H](CC(C)C)C(=O)N[C@H](CC(C)C)C(=O)N[C@H](CCCCN)C(=O)N[C@@H](C(=O)N[C@H](CC(C)C)C(=O)N[C@H](CO)C(=O)N[C@H](CCCCN)C(=O)N[C@H](C)C(=O)N[C@H](CCCCN)C(=O)N[C@H](C)C(=O)N[C@H](C)C(=O)N[C@H](CCCCN)C(=O)N[C@H](CC(C)C)C(=O)N[C@H](CCCCN)C(=O)N[C@@H](C(=O)N[C@H](CC(C)C)C(=O)N[C@H](CC(C)C)C(=O)N[C@H](CCCCN)C(=O)N[C@H](C)C(=O)N[C@H](CC(C)C)C(=O)N[C@H](CO)C(=O)N[C@H](CCCCN)C(N)=O)[C@H](C)O)[C@H](C)O [Peptide D84, Ac-KL(Lys)SLL(Lys)TLS(Lys)AKAAKL(Lys)TLL(Lys)ALS(Lys)-amide]																		MIC ([3]; strain MB9941 (Table 9C)): 0.3 µM (≈ 0.86 µg/mL); MIC ([3]; strain MB9949 (Table 9C)): 0.7 µM (≈ 2.01 µg/mL); MIC ([3]; strain MB9951 (Table 9C)): 0.3 µM (≈ 0.86 µg/mL); MIC ([3]; strain MB9952 (Table 9C)): 0.7 µM (≈ 2.01 µg/mL); MIC ([3]; strain MB9953 (Table 9C)): 0.7 µM (≈ 2.01 µg/mL); MIC ([3]; strain MB9955 (Table 9C)): 0.3 µM (≈ 0.86 µg/mL); MIC ([3]; strain MB9963 (Table 9C)): 0.7 µM (≈ 2.01 µg/mL); HC50 at 18 h ([4]; human): 156 µg/mL
CC(=O)N[C@H](CCCCN)C(=O)N[C@H](CC(C)C)C(=O)N[C@H](CCCNC(=N)N)C(=O)N[C@H](CO)C(=O)N[C@H](CC(C)C)C(=O)N[C@H](CC(C)C)C(=O)N[C@H](CCCNC(=N)N)C(=O)N[C@@H](C(=O)N[C@H](CC(C)C)C(=O)N[C@H](CO)C(=O)N[C@H](CCCNC(=N)N)C(=O)N[C@H](C)C(=O)N[C@H](CCCCN)C(=O)N[C@H](C)C(=O)N[C@H](C)C(=O)N[C@H](CCCCN)C(=O)N[C@H](CC(C)C)C(=O)N[C@H](CCCNC(=N)N)C(=O)N[C@@H](C(=O)N[C@H](CC(C)C)C(=O)N[C@H](CC(C)C)C(=O)N[C@H](CCCNC(=N)N)C(=O)N[C@H](C)C(=O)N[C@H](CC(C)C)C(=O)N[C@H](CO)C(=O)N[C@H](CCCNC(=N)N)C(N)=O)[C@H](C)O)[C@H](C)O [Peptide D87, Ac-KL(Arg)SLL(Arg)TLS(Arg)AKAAKL(Arg)TLL(Arg)ALs(Arg)-amide] (Ac-[dK][dL][dR][dS][dL][dL][dR][dT][dL][dS][dR][dA][dK][dA][dA][dK][dL][dR][dT][dL][dL][dR][dA][dL][dS][dR]-NH2)																	12 µg/mL	
CC(=O)N[C@H](CCCCN)C(=O)N[C@H](CC(C)C)C(=O)N[C@H](CCCCN)C(=O)N[C@H](CO)C(=O)N[C@H](CC(C)C)C(=O)N[C@H](CC(C)C)C(=O)N[C@H](CCCCN)C(=O)N[C@@H](C(=O)N[C@H](CC(C)C)C(=O)N[C@H](CO)C(=O)N[C@H](CCCCN)C(=O)N[C@H](C)C(=O)N[C@H](CCCCN)C(=O)N[C@H](C)C(=O)N[C@H](C)C(=O)N[C@H](CCCCN)C(=O)N[C@H](CC(C)C)C(=O)N[C@H](CCCCN)C(=O)N[C@@H](C(=O)N[C@H](CC(C)C)C(=O)N[C@H](CC(C)C)C(=O)N[C@H](CCCCN)C(=O)N[C@H](C)C(=O)N[C@H](CC(C)C)C(=O)N[C@H](CO)C(=O)N[C@H](CO)C(N)=O)[C@H](C)O)[C@H](C)O [Peptide D101, Ac-KL(Lys)SLL(Lys)TLS(Lys)AKAAKL(Lys)TLL(Lys)ALSS-amide]																	279 µg/mL and > 104 µM	
CC(=O)N[C@H](CCCCN)C(=O)N[C@H](CC(C)C)C(=O)N[C@H](CCCCN)C(=O)N[C@H](CO)C(=O)N[C@H](CC(C)C)C(=O)N[C@H](CC(C)C)C(=O)N[C@H](CCCCN)C(=O)N[C@@H](C(=O)N[C@H](CC(C)C)C(=O)N[C@H](CO)C(=O)N[C@H](C)C(=O)N[C@H](C)C(=O)N[C@H](CCCCN)C(=O)N[C@H](CCCCN)C(=O)N[C@H](CCCCN)C(=O)N[C@H](CCCCN)C(=O)N[C@H](CC(C)C)C(=O)N[C@H](C)C(=O)N[C@@H](C(=O)N[C@H](CC(C)C)C(=O)N[C@H](CC(C)C)C(=O)N[C@H](CCCCN)C(=O)N[C@H](C)C(=O)N[C@H](CC(C)C)C(=O)N[C@H](CO)C(=O)N[C@H](CO)C(N)=O)[C@H](C)O)[C@H](C)O [Peptide D103, Ac-KL(Lys)SLL(Lys)TLSAAK(Lys)(Lys)KLATLL(Lys)ALSS-amide] (Ac-[dK][dL][dK][dS][dL][dL][dK][dT][dL][dS][dA][dA][dK][dK][dK][dK][dL][dA][dT][dL][dL][dK][dA][dL][dS][dS]-NH2)																	381 µg/mL and 135 µM	
Colistin [reference compound]																		MICGM [3]: >28 µM; MIC ([3]; strain M89941): >28 µM; MIC ([3]; strain M89949): >28 µM; MIC ([3]; strain M89951): >28 µM; MIC ([3]; strain M89952): >28 µM; MIC ([3]; strain M89953): >28 µM; MIC ([3]; strain M89955): >28 µM; MIC ([3]; strain M89963): >28 µM
Polymyxin B [reference compound]																		MICGM [3]: >25 µM; MIC ([3]; strain M89941): >25 µM; MIC ([3]; strain M89949): >25 µM; MIC ([3]; strain M89951): >25 µM; MIC ([3]; strain M89952): >25 µM; MIC ([3]; strain M89953): >25 µM; MIC ([3]; strain M89955): >25 µM; MIC ([3]; strain M89963): >25 µM

Source: US10874745B2, “Antimicrobial peptides and methods of treating gram-negative pathogens: polar and non-polar face analogs” (priority 2017, dated 2020)
